Test results from publication PMC3900303 (Toxicology and applied pharmacology, 2013).
Read-outs that look alike come from different tables or passages of the source.

How the values were obtained:
[1] = system: Human iPSC-derived cardiomyocytes; assay: High-throughput cardiomyocyte beating assay; settings: for effect on the beating rate / beat rate / chronotrope effect / effect on spacing between peaks and regularity: general clustering analysis of concentration-response; for effect on the beating rate / beat rate: 3 nM to 30 μM; for effect on beating parameters at 30 minutes: 30 min exposure; for effect on beating: at 3 μM; for hormesis-like concentration effect on beating rate: low vs high concentrations; for impact on the shape of the peaks: compounds known to prolong the QT interval
[2] = system: Human iPSC-derived cardiomyocytes
[3] = system: Human iPSC-derived cardiomyocytes; assay: Cell viability imaging; format: cell-based; settings: evaluated 24 hrs after treatment

`CC(C)COCC(CN(Cc1ccccc1)c1ccccc1)N1CCCC1` (stereo not drawn) [bepridil] was tested, and the “effect on the beating rate / beat rate” value [1] was “strongly inhibited”.
For `COc1cccc2c1C(=O)c1c(O)c3c(c(O)c1C2=O)C[C@@](O)(C(=O)CO)C[C@@H]3O[C@H]1C[C@H](N)[C@H](O)[C@H](C)O1` [doxorubicin], the “effect on beating parameters at 30 minutes” value (from here on “effect on beating parameters”) [1] was “did not have an effect”.
With `C[C@H]1O[C@@H](O[C@H]2[C@@H](O)C[C@H](O[C@H]3[C@@H](O)C[C@H](O[C@H]4CC[C@@]5(C)[C@H](CC[C@@H]6[C@@H]5CC[C@]5(C)[C@@H](C7=CC(=O)OC7)CC[C@]65O)C4)O[C@@H]3C)O[C@@H]2C)C[C@H](O)[C@@H]1O` [digitoxin] the effect on beating [1] was “blocked beating completely”.
For `OCc1cc(C(O)CNCCCCCCOCCCCc2ccccc2)ccc1O` (stereo not drawn) [salmeterol], the “hormesis-like concentration effect on beating rate” value [1] was “increased at low concentrations, but decreased or completely stopped at high doses”.
With `O=C(O)Cc1ccccc1Nc1c(Cl)cccc1Cl` [diclofenac] the “effect on beating parameters” value [1] was “did not have an effect”.
With `CN(CCOc1ccc(CC2SC(=O)NC2=O)cc1)c1ccccn1` (stereo not drawn) [rosiglitazone] the “effect on beating parameters” value [1] was “did not have an effect”.
In the case of `CC(C)NCC(O)COc1cccc2[nH]ccc12` (stereo not drawn) [pindolol], the chronotrope effect [1] is reported as “negative chronotrope effect”.
In the case of `CCc1ccc(CCOc2ccc(CC3SC(=O)NC3=O)cc2)nc1` (stereo not drawn) [pioglitazone], the “effect on beating parameters” value [1] is reported as “did not have an effect”.
With `COC(=O)C1=C(C)NC(C)=C(C(=O)OCCN(C)Cc2ccccc2)C1c1cccc([N+](=O)[O-])c1` (stereo not drawn) [nicardipine] the “effect on the beating rate / beat rate” value [1] was “strongly inhibited”.
`C=C[C@H]1C[N@@]2CC[C@H]1C[C@@H]2[C@@H](O)c1ccnc2ccc(OC)cc12` [quinidine] was tested, and the “impact on the shape of the peaks” value [1] was “profound impact”.
For `CCN(CC)CC(=O)Nc1c(C)cccc1C` [lidocaine], the “effect on spacing between peaks and regularity” value [1] was “affected” and the “effect on the beating rate / beat rate” value [1] was “little effect”.
With `CCCCN1CCCCC1C(=O)Nc1c(C)cccc1C` (stereo not drawn) [bupivacaine] the beating profile ([1]; multi-parametric peak pattern) was “appearance of wide peaks”.
`COc1ccc([C@@H]2Sc3ccccc3N(CCN(C)C)C(=O)[C@@H]2OC(C)=O)cc1` [diltiazem] was tested, and the “effect on the beating rate / beat rate” value [1] was “strongly inhibited”.
In the case of `CC(C)(C)c1ccc(C(O)CCCN2CCC(C(O)(c3ccccc3)c3ccccc3)CC2)cc1` (stereo not drawn) [terfenadine], the “effect on the beating rate / beat rate” value [1] is reported as “strongly inhibited”.
In the case of `CN(C)CCCN1c2ccccc2CCc2ccccc21` [imipramine], the “impact on the shape of the peaks” value [1] is reported as “profound impact”.
With `N.N.[Cl][Pt][Cl]` [cisplatin, cis-diamineplatinum(II)dichloride] the “effect on beating parameters” value [2] was “did not have an effect”.
In the case of `CC(C)Cc1ccc(C(C)C(=O)O)cc1` (stereo not drawn) [ibuprofen], the “effect on beating parameters” value [1] is reported as “did not have an effect”.
For `O=c1[nH]cc(F)c(=O)[nH]1` [5-fluoracil], the “effect on beating parameters” value [1] was “did not have an effect”.
With `CC(=O)O.O=C(NCC1CCCCN1)c1cc(OCC(F)(F)F)ccc1OCC(F)(F)F` (stereo not drawn) [flecainid acetate] the “effect on spacing between peaks and regularity” value [1] was “affected” and the “effect on the beating rate / beat rate” value [1] was “little effect”.
For `COc1cccc2c1C(=O)c1c(O)c3c(c(O)c1C2=O)C[C@@](O)(C(C)=O)C[C@@H]3O[C@H]1C[C@H](N)[C@H](O)[C@H](C)O1` [daunorubicin], the “effect on beating parameters” value [1] was “did not have an effect”.
For `CNCCCN1c2ccccc2CCc2ccccc21` [desipramine], the “impact on the shape of the peaks” value [1] was “profound impact”.
In the case of `Cc1cnc(NC(=O)C2=C(O)c3ccccc3S(=O)(=O)N2C)s1` [meloxicam], the “effect on beating parameters” value [1] is reported as “did not have an effect”.
In the case of `C[C@H]1O[C@@H](O[C@H]2[C@@H](O)C[C@H](O[C@H]3[C@@H](O)C[C@H](O[C@H]4CC[C@@]5(C)[C@H](CC[C@@H]6[C@@H]5C[C@@H](O)[C@]5(C)[C@@H](C7=CC(=O)OC7)CC[C@]65O)C4)O[C@@H]3C)O[C@@H]2C)C[C@H](O)[C@@H]1O` [digoxin], the effect on beating [1] is reported as “blocked beating completely” and the “hormesis-like concentration effect on beating rate” value [1] is reported as “increased at low concentrations, but decreased or completely stopped at high doses”.
In the case of `CC(C)NCC(O)c1ccc(NS(C)(=O)=O)cc1` (stereo not drawn) [sotalol], the “impact on the shape of the peaks” value [1] is reported as “profound impact”.
In the case of `COc1ccc(CCN2CCC(Nc3nc4ccccc4n3Cc3ccc(F)cc3)CC2)cc1` [astemizol], the “effect on the beating rate / beat rate” value [1] is reported as “strongly inhibited”.
In the case of `CCN(CC)CCNC(=O)c1ccc(N)cc1` [procainamide], the “impact on the shape of the peaks” value [1] is reported as “profound impact”.
`CCCCc1oc2ccccc2c1C(=O)c1cc(I)c(OCCN(CC)CC)c(I)c1` [amiodarone] was tested, and the “impact on the shape of the peaks” value [1] was “profound impact” and the chronotrope effect [1] was “negative chronotrope effect”.
With `CS(=O)(=O)c1ccc(C2=C(c3ccccc3)C(=O)OC2)cc1` [rofecoxib] the “effect on beating parameters” value [1] was “did not have an effect”.
With `CC(C)N(CCC(C(N)=O)(c1ccccc1)c1ccccn1)C(C)C` (stereo not drawn) [disopyramide] the “effect on cell viability” value [3] was “No effect”, the “effect on the beat rate” value ([1]; 30 min exposure time-point) was “no effect” and the “effect on the peak shape parameters” value ([1]; 30 min exposure time-point (Figure 2)) was “clear concentration-dependent effect”. The “impact on the shape of the peaks” value [1] was “profound impact”, the “effect on spacing between peaks and regularity” value [1] was “affected” and the “effect on the beating rate / beat rate” value [1] was “little effect”.
With `CC(C)NCC(O)c1ccc(O)c(O)c1` (stereo not drawn) [isoproterenol] the chronotrope effect [1] was “positive chronotrope effect”.
